We go through 13 molecules from patent publication US5362747A, “2-nitroaryl and 2-cyanoaryl compounds as regulators of nitric oxide synthase” (Abbott Laboratories, priority 1993, dated 1994).

The term IC50 denotes the concentration needed to halve the response being measured. A high value points to lower potency.

In one test the test system is EDRF (NO) production. As to conditions: cited from earlier work.
The target in a further test is T1, Type II (macrophage) NOS (Mus musculus, UniProt P29477).
T1 construct: cytosolic preparations of NO synthase (type II isoform) were prepared from RAW 264.7 cells; endogenous in cells; host or cells: RAW 264.7 cells, induced 16 hours with lipopolysaccharide; cytosolic preparation
The test can be described thus: [3H]-arginine to [3H]-citrulline conversion, Type II (macrophage) NOS. Particulars: cytosolic NOS from LPS-induced RAW 264.7 cells, 25° C.; for inhibition at 100 µM: read-out: Type II % inhib. @ 100 μM. It counts as biochemical, murine. An excerpt:
The enzyme NO synthase produces EDRF/NO and citrulline from L-arginine (Bredt and Snyder, Proc. Nat'l Acad Sci USA, 1989, 87: 682-5). The enzymatic generation of EDRF/NO is monitored by measuring the conversion of [^3 H]-L-arginine to [^3 H]-L-citrulline. An inhibitor of this specific enzymatic reaction lowers the conversion rate and, thus, the amount of [^3 H]-L-citrulline produced. Likewise, a compound acting as a substrate would compete with L-arginine and thereby lower the conversion rate.
The conversion of L-arginine to L-citrulline was assayed as reported previously (Bredt and Snyder, Proc. Nat'l Acad Sci USA, 1989, 87: 682-5) with minor modifications. Briefly, samples of partially purified NO synthase, […] of partially purified NO synthase or, alternately, […] of a cytosolic preparation of NO synthase. The type 1 isoform of NO synthase was isolated from rat brain cerebellum cells partially purified on a phosphocellulose column. The cytosolic preparations of NO synthase (type II isoform) were prepared from RAW 264.7 cells (a murine monocyte-macrophage cell line), induced for 16 hours with […] medium of lipopolysaccharide (LPS). Another enzyme isoform (type III)is known to be present in bovine endothelial cells (BAE cells), and can be utilized if an additional assay is desired. The samples of enzyme were incubated for 20 minutes (3 minutes in the cases of purified enzyme preparations) at 25° C. in the presence of […] L-[2,3-^3 H]arginine (55 Ci /mmol) (containing 34 nM (0.2 mCi)), 1 mM NADPH, 100 nM calmodulin, 2 mM CaCl2, and with varying concentrations of inhibitors, in a final volume of […]. The reaction was stopped by adding 1 mL of stop buffer (2 mM EGTA, 2 mM EDTA, 20 mM HEPES, pH 5.5). The total volume was then applied to a 1 mL Dowex AG 50WX-8 column (Na^+ form, BioRad) that had been pre-equilibrated with the stop buffer. L-[2,3-^3 H]Citrulline was eluted (2×) with 0.5 mL of stop buffer and radioactivity was determined by liquid scintillation counting. The L-[2,3-^3 H]arginine (Dupont, NEN) was purified prior to use on Dowex AG-1-X8 (CH3 CO2 -- form, Bio-Rad), eluted with distilled water, acidified, concentrated on a Speed-Vac (Savant) and stored at -20° C.

A further test deals with T2, Type I (rat brain) NOS (Rattus norvegicus, UniProt P29476).
T2 construct: isolated from rat brain cerebellum cells partially purified on a phosphocellulose column; from tissue; host or cells: rat brain cerebellum, partially purified on phosphocellulose
Briefly: [3H]-arginine to [3H]-citrulline conversion, Type I (rat brain) NOS. Type of test: biochemical. Particulars: rat brain cerebellum NOS, 25° C.; for inhibition at 100 µM: read-out: Type I % inhib. @ 100 μM.

A further test relates to NO synthase enzyme. Particulars: cited from earlier work.
The next test deals with bovine coronary artery. Particulars: cited from earlier work.

T2 sequence (P29476 whole entry): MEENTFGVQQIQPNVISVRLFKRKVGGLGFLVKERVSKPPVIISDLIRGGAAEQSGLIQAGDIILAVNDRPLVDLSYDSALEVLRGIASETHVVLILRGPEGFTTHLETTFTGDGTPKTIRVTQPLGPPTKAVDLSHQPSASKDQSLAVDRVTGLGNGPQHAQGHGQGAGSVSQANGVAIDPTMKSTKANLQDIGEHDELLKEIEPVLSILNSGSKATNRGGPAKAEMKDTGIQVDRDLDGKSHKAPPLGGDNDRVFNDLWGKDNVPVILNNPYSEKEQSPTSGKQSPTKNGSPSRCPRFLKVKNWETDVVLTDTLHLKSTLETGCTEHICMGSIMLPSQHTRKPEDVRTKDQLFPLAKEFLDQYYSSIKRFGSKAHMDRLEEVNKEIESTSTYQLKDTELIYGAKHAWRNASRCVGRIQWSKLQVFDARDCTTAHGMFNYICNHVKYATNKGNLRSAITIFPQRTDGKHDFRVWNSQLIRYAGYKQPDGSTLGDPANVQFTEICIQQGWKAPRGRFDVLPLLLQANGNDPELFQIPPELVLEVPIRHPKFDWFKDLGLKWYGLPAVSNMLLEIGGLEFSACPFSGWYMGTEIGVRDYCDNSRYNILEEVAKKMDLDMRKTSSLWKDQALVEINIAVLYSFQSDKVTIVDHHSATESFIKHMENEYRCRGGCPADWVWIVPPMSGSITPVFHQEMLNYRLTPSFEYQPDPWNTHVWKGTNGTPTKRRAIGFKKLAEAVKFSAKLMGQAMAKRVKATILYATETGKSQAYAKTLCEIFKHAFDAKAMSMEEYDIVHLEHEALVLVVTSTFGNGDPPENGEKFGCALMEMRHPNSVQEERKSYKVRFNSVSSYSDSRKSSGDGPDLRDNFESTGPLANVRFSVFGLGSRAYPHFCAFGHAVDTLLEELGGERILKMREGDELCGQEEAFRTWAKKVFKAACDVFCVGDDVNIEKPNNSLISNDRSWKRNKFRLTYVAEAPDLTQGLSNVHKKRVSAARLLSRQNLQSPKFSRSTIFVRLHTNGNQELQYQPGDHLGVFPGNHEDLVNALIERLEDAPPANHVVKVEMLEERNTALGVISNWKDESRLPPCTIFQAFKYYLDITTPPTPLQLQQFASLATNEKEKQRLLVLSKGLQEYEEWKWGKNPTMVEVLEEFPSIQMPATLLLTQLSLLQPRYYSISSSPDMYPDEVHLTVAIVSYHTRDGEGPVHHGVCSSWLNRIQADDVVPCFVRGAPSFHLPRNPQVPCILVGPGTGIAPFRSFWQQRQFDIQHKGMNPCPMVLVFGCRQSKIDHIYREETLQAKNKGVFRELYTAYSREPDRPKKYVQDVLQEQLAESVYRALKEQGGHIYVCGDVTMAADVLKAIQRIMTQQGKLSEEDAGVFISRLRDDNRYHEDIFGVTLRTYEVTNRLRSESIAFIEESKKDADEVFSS
T1 sequence (P29477 whole entry, canonical isoform): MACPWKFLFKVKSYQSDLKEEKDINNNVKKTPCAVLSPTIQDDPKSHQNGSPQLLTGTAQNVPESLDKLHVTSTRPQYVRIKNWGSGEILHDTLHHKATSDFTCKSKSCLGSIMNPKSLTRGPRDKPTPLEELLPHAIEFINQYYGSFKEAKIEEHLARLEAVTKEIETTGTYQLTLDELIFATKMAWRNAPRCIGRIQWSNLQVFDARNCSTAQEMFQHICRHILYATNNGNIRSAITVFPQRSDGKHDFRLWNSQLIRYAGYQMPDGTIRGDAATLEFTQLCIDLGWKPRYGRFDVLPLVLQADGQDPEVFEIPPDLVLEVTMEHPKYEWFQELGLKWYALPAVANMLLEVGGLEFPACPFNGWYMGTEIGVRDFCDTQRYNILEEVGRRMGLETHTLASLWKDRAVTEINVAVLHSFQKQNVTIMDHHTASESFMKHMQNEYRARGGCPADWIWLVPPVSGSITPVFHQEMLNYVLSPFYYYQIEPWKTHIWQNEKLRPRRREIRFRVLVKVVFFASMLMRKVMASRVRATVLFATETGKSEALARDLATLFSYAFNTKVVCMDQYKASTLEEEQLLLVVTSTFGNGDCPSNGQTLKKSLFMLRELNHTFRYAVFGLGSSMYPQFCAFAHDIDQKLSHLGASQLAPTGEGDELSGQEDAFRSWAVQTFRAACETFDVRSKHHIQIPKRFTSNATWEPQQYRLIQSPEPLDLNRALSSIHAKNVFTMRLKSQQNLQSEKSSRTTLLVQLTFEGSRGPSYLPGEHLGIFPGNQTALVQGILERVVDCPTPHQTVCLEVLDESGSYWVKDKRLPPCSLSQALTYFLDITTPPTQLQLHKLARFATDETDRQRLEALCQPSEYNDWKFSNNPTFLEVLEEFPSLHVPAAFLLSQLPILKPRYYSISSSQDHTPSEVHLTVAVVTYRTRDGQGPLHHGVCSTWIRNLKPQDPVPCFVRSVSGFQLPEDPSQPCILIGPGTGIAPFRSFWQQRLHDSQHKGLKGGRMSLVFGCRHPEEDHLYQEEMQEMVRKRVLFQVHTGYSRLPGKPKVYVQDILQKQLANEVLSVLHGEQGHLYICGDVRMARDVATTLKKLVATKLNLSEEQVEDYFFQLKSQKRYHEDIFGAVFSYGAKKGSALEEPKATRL
Experimental for Type I (rat brain) NOS: Briefly, samples of partially purified NO synthase, 50-100 mg of partially purified NO synthase or, alternately, 20 mL of a cytosolic preparation of NO synthase. The type 1 isoform of NO synthase was isolated from rat brain cerebellum cells partially purified on a phosphocellulose column. […] The reaction was stopped by adding 1 mL of stop buffer (2 mM EGTA, 2 mM EDTA, 20 mM HEPES, pH 5.5). The total volume was then applied to a 1 mL Dowex AG 50WX-8 column (Na^+ form, BioRad) that had been pre-equilibrated with the stop buffer. L-[2,3-^3 H]Citrulline was eluted (2×) with 0.5 mL of stop buffer and radioactivity was determined by liquid scintillation counting.

As to `CNC(=N)NCCCC(N)C(=O)O` (centres unmarked) [N^G -methylarginine], the “EDRF (NO) production” value in the test on EDRF (NO) production is given as “inhibited”.
Consider `N[C@@H](CCCNc1c(Cl)cccc1[N+](=O)[O-])C(=O)O` [Example 6, (2S)-2-amino-5-(2-chloro-6-nitrophenylamino)pentanoic acid], for which the inhibition at 100 µM at Type II (macrophage) NOS was determined as 11%; on Type I (rat brain) NOS, 55%. Also, the IC50 against Type II (macrophage) NOS was greater than 100 µM; against Type I (rat brain) NOS, 100 µM.
For `Cc1ccc([N+](=O)[O-])c(NCCC[C@@H](N)C(=O)O)c1` [Example 10, (2R)-2-amino-5-(5-methyl-2-nitrophenylamino)pentanoic acid] the same measures were 45%, 58%, 100 µM and 70 µM.
For `COc1ccc([N+](=O)[O-])c(NCCC[C@H](N)C(=O)O)c1` [Example 5, (2S)-2-amino-5-(5-methoxy-2-nitrophenylamino)pentanoic acid] the same measures were 46%, 68%, 100 µM and 20 µM.
`Cc1ccc([N+](=O)[O-])c(NC/C=C/[C@H](N)CO)c1` [Example 3, (2S)-2-amino-5-(5-methyl-2-nitrophenylamino)-pent-3E-en-1-ol]: the IC50 on Type II (macrophage) NOS stood at 10 µM. Further, at Type I (rat brain) NOS, the inhibition at 100 µM is 99% and the IC50 was found to be 3 µM.
For the molecule N-hydroxyarginine, the “substrate for the NO synthase enzyme” value with NO synthase enzyme is “substrate”.
For `Cc1ccc([N+](=O)[O-])c(NCCC[C@H](N)C(=O)O)c1` [Example 2, (2S)-2-amino-5-(5-methyl-2-nitrophenylamino)pentanoic acid], at Type II (macrophage) NOS, the inhibition at 100 µM turned out to be 88% and the IC50 turned out to be 10 µM. Further, on Type I (rat brain) NOS, the inhibition at 100 µM was found to be 88% and the IC50 is 4 µM.
For the molecule `Cc1ccc([N+](=O)[O-])c(NCCCC[C@H](N)C(=O)O)c1` [Example 7, (2S)-2-amino-6-(2-nitro-5-methylphenylamino)hexanoic acid], the results for the IC50 at Type II (macrophage) NOS and against Type I (rat brain) NOS were greater than 100 µM and 40 µM, respectively. The inhibition at 100 µM on Type I (rat brain) NOS amounted to 91%.
With `N=C(NCCC[C@H](N)C(=O)O)N[N+](=O)[O-]` [NNLA, NNitro-L-arginine, reference compound], on Type II (macrophage) NOS, the inhibition at 100 µM was 94% and the IC50 was 7 µM. In addition, on Type I (rat brain) NOS, the inhibition at 100 µM came to 95%.
In the case of `N#Cc1ccccc1NCCC[C@H](N)C(=O)O` [Example 11, (2S)-2-amino-5-(2-cyanophenylamino)pentanoic acid], on Type II (macrophage) NOS, the inhibition at 100 µM was found to be 50% and the IC50 was 100 µM. Moreover, at Type I (rat brain) NOS, the inhibition at 100 µM came out at 6% and the IC50 is greater than 100 µM.
For `Cc1ccc([N+](=O)[O-])c(NCCCC(N)CO)c1` (centres unmarked) [Example 4, 2-amino-5-(5-methyl-2-nitrophenylamino)-1-pentanol] the same measures were 99%, 2.5 µM, 94% and 3 µM.
Turning to nitric oxide [nitric oxide (NO)], the cGMP accumulation result in the test with bovine coronary artery (accompanying relaxation of bovine coronary artery) is listed as “cGMP accumulation”. Moreover, in the test with bovine coronary artery, the “relaxation of bovine coronary artery” value was “potent and transient relaxation”.
For `Cc1ccc([N+](=O)[O-])c(SCCC[C@H](N)C(=O)O)c1` [Example 8, 2(S)-amino-5-(5-methyl-2-nitrophenylthioxy)pentanoic acid], at Type II (macrophage) NOS, the inhibition at 100 µM turned out to be 95% and the IC50 was 9 µM. In addition, at Type I (rat brain) NOS, the inhibition at 100 µM came to 97% and it took 1 µM to reach half-maximal inhibition (IC50).
